Earlier results as cited in US8287898B2, “Compositions and methods for body weight management” (The Procter & Gamble Company, priority 2000, dated 2012).
Read-outs that look alike come from different tables or passages of the source.

Columns and labels:
[1] = sham feeding rat model
[2] = jejunally infused neat, 0.2 mL/hr for seven hours, rats
[3] = solutions infused in the duodenum or mid-gut (jejunum), or into the colon; rats, three hours of feeding

Compound | total caloric intake ([1]; duodenally infused emulsion) | total caloric intake ([1]; ileal infusion) | total daily caloric intake [2] | total caloric intake [3]
CCCCC/C=C\C/C=C\CCCCCCCC(=O)O [linoleic acid] | reduce total caloric intake | do not | significantly reduce | 
CC/C=C\C/C=C\C/C=C\CCCCCCCC(=O)O [linolenic] | somewhat less effective |  |  | 
CCCCCCCC/C=C\CCCCCCCC(=O)O [oleic acid] | somewhat less effective |  | significantly reduce | 
N[C@@H](Cc1ccccc1)C(=O)O [phenylalanine] |  |  |  | suppressed total caloric intake
N[C@@H](Cc1c[nH]c2ccccc12)C(=O)O [tryptophan] |  |  |  | suppressed total caloric intake
